From article PMC12163684, “Gunacins: Novel Benzo[g]chromene Derivatives from the Fungus Exobasidium sp. and Their Potent Anti-Leishmania and Trypanosoma Activities” (ACS Omega, 2025)
Where two headings read alike, the source gives them in different places.

Experiments:
[1] = system: Jurkat T-lymphocyte cell line; assay: Cytotoxicity, Hoechst 33258 staining and flow cytometry (FACS LSRII); assay type: cell-based; details: 24 h incubation, flow cytometry, read-out: EC50 ± SEM Jurkat
Protocol: To evaluate the cytotoxicity of the isolated compounds, the immortalized T-lymphocyte cell line Jurkat was cultured in 96-well polypropylene U-bottom plates at a density of approximately 2 × 10^5 cells per well in RPMI1640 medium, with a total volume of 300 μL per well. Cells cultured in RPMI1640 medium alone and in RPMI1640 medium with DMSO were used as negative controls. After 24 h of incubation with the isolated compounds, dissolved in 10 mM DMSO, the cells were washed with PBS solution containing 0.02% gelatin and 0.01% sodium azide. Following this, the cells were stained with the fluorescent dye Hoechst 33258 and analyzed by flow cytometry using a FACS LSRII instrument (BD Biosciences, San Jose, USA) and FlowJo 10 software (Tree Star, Ashland, USA). Initial assays were conducted at concentrations of 5, 25, 50, 100, and 125 μM, with subsequent measurements at concentrations adjusted based on the results of the initial assays, each performed in triplicate. EC50 values were determined using Quest Graph software and the dose–response four parameters regression model. The EC50 values were determined from three independent experiments.

[2] = system: T. b. evansi AnTat 3/3; assay: Anti-trypanosomal activity, resazurin (AB assay), bloodstream form; assay type: cell-based, T. brucei evansi; details: Trypanosoma brucei, 72 h, axenic, 48 h + 24 h resazurin
Protocol: The bloodstream forms of T. b. gambiense LiTat 1.3, T. b. brucei 427, and T. b. evansi AnTat 3/3 were grown in HMI-11 medium pH 7.3 supplemented with 36 mM sodium bicarbonate, 100 U/mL penicillin/streptomycin, and 10% fetal bovine serum at 37 °C and 5% CO2. The bloodstream form of Trypanosoma congolense IL3000 (generous gift from Liam Morrison) was cultured in TcBSF-1 medium pH 7.3 supplemented with 26 mM sodium bicarbonate, 25 mM HEPES, 5.5 mM glucose, 1 mM sodium pyruvate, 0.04 mM adenosine, 0.1 mM hypoxanthine, 0.02 mM thymidine, 0.02 mM bathocuproine, 2 mM L-glutamine, 0.2 mM 2-mercaptoethanol, 100 U/ml penicillin/streptomycin, and 20% goat serum New Zealand origin (Gibco) at 34 °C, 5% CO2. The assay for anti-trypanosomal activity was performed using the resazurin sodium salt dye (AB Assay) according to the published protocol in a 96-well plate format. Parasites at a number of 5 × 10^3 per well (T. b. brucei and T. b. gambiense) or 1 × 10^4 per well (T. b. evansi) were incubated with different drug concentrations (2-fold serial dilutions) in a volume of 200 μL of the medium. Medium with 1% DMSO (the highest concentration of the solvent used in the assay) was used to confirm no effect of the solvent on the cell growth. The plates were incubated for 48 h at the appropriate temperature. Then, 20 μL of resazurin sodium salt solution (0.125 mg/mL in 1× PBS, pH 7. 4) was added to each well, and the cells were incubated for another 24 h under the same conditions. The fluorescence signal was quantified using a Tecan Infinite M200 plate reader at excitation and emission wavelengths of 560 and 590 nm, respectively. The EC50 values were calculated using GraphPad Prism 9.5.1 by nonlinear regression with a variable slope. Each EC50 value is the mean ± standard error of the mean of three separate experiments performed in duplicate.

[3] = system: L. mexicana (MNYC/BZ/1962/M379) promastigote; assay: Anti-Leishmania activity, AB assay, axenic promastigotes; assay type: cell-based
Protocol: (§1) Promastigote stages of L. mexicana (MNYC/BZ/1962/M379), a generous gift from Vyacheslav Yurchenko, were cultured in M199 medium pH 7.4 supplemented with 2 μg/mL biopterin, 2 μg/mL hemin, 25 mM HEPES, 100 U/mL penicillin/streptomycin, and 10% heat-inactivated FBS (BioSera) pH 7.4 at 25 °C. The amastigotes were differentiated in vitro from late log/stationary promastigote cultures and cultivated in Schneider’s Drosophila Medium (SIM) at pH 5.5, supplemented with 1.5 μg/mL hemin, 100 U/mL penicillin/streptomycin, and 20% heat-inactivated FBS (BioSera) at pH 5.5, at 32 °C, and 5% CO2. Following a three-day period, the promastigotes underwent a transformation into amastigotes, which were then maintained in SIM.
(§2) To estimate the EC50, the AB assay, as previously described, was employed. The results are expressed as EC50, representing the dose of the compound required to inhibit cellular growth by 50%. Each EC50 value is the mean ± the standard error of the mean derived from at least three separate experiments, each performed in duplicate.

[4] = system: L. mexicana (MNYC/BZ/1962/M379) amastigote; assay: Anti-Leishmania activity, AB assay, axenic amastigotes; assay type: cell-based
Protocol: as §1, §2

[5] = system: RAT2 fibroblast cell line; assay: Cytotoxicity on proliferating cells, crystal violet assay, OD590; assay type: cell-based; details: 24 h treatment, read-out: EC50 ± SEM RAT2
Protocol: (§3) MDCK and RAT cells were cultured in DMEM with 10% FBS at 37 °C in a 5% CO2 atmosphere as described previously. , To assess the toxic effects of the compounds on proliferating cells, cells were seeded in 24-well plates for 24 h to reach ∼15% confluence, and cells were treated in triplicate with increasing concentrations of the isolated compounds for an additional 24 h. Cells were washed with 1× PBS, fixed in staining solution (0.5% crystal violet, 20% methanol) for 10 min, and gently washed five times in 1× PBS. The fixed cells were then dissolved in lysis solution (0.1 M sodium citrate, 25% ethanol, pH 4.2) for 30 min, transferred to a 96-well plate in H2O, and the OD^590 was determined. EC50 values were determined using GraphPad Prism software and the dose–response fit equation. The EC50 values were determined from two independent experiments. Additionally, the impact of the isolated substances on the morphology of the HeLa adenocarcinoma cell line and primary human skin fibroblasts was examined by using fluorescence microscopy. Cells were cultured in DME medium supplemented with 10% FCS (Gibco, Invitrogen, Carlsbad, USA) on glass coverslips in 24-well plates until reaching approximately 50% confluence. The cells were treated with varying concentrations of isolated compounds dissolved in DMSO. Wells containing DMEM with DMSO served as the negative control. After 24 h cultivation, the cells were incubated with MitoTracker Red CMXRos (10 min) to label mitochondria, then fixed with 3.7% paraformaldehyde in PBS (20 min, room temperature), permeabilized with 0.1% Triton X-100 in PBS, and blocked with 1% BSA in PBS. The cells were then stained with Phalloidin-Alexa Fluor488 conjugate. All fluorescence reagents were purchased from Molecular Probes, Invitrogen, Carlsbad, CA, USA. Nuclei were stained with Fluoroshield DAPI (Sigma-Aldrich), and cells were examined using an IX71 microscope equipped with a DP70 camera and a 40× objective. Assays were performed at concentrations of 5, 25, 50, 100, and 125 μM.

[6] = system: Madin–Darby canine kidney (MDCK) epithelial cell line; assay: as above; assay type: cell-based; details: Canis lupus familiaris, 24 h treatment, read-out: EC50 ± SEM MDCK
Protocol: as §3

| Compound | EC50 [1] [nM] | EC50 ([1]; Homo sapiens, Jurkat, 24 h) [nM] | EC50 [2] [nM] | EC50 [3] [nM] | EC50 [4] [nM] | EC50 [5] [nM] | EC50 ([5]; Rat2, 24 h) [nM] | EC50 [6] [nM] |
| --- | --- | --- | --- | --- | --- | --- | --- | --- |
| COc1cc(O)c2c(c1)C(=O)C1=C(C2=O)[C@@H](OC(C)=O)[C@@H](O)[C@@H](C)O1 [Compound 1, (2R,3S,4R)-3,6-dihydroxy-8-methoxy-2-methyl-5,10-dioxo-3,4,5,10-tetrahydro-2H-benzo[g]chromen-4-yl acetate] | 1700 ± 100 | ~1500 | 30 | 220 | 10 | 60 | 100 | 100 |
| COc1cc(O)c2c(c1)C(=O)C1=C(C2=O)[C@H](O)[C@@H](O)[C@@H](C)O1 (relative stereo) [Compound 3, (2R,3R,4S)-3,4,6-trihydroxy-8-methoxy-2-methyl-3,4-dihydro-2H-benzo[g]chromene-5,10-dione] | – | 16500 ± 1300 | 4200 | 8600 | 5600 | – | 5100 ± 700 | 4700 ± 600 |
| COc1cc(O)c2c(c1)C(=O)C1=C(C[C@@H](OC(C)=O)[C@@H](C)O1)C2=O [Compound 7, (2R,3R)-6-hydroxy-8-methoxy-2-methyl-5,10-dioxo-3,4,5,10-tetrahydro-2H-benzo[g]chromen-3-yl acetate] | – | 93200 ± 5900 | 700 | 3600 | 2500 | – | 6000 ± 300 | 5600 ± 1100 |
| COc1cc(O)c2c(c1)C(=O)C1=C(C2=O)[C@@H](O)[C@@H](OC(C)=O)[C@@H](C)O1 [Compound 5, (2R,3R,4R)-4,6-dihydroxy-8-methoxy-2-methyl-5,10-dioxo-3,4,5,10-tetrahydro-2H-benzo[g]chromen-3-yl acetate] | 1600 ± 100 | ~1500 | 40 | 240 | 10 | – | 30 | 100 |
